Results published in article PMC8778022, “Synthesis and Biological Activity of 3-(Heteroaryl)quinolin-2(1H)-ones Bis-Heterocycles as Potential Inhibitors of the Protein Folding Machinery Hsp90” (Molecules, 2022).
Blank lines part the entries; values can stand above or below the compound they belong to.

What was measured:
MDA-MB-231 cells = test: MTS cell viability assay, MDA-MB-231 cells, 72 h; type: cell-based, human; conditions: Homo sapiens, MDA-MB-231, 72 h, 25 µM, % of viable cells compared to untreated cells 100%
Description: (§1) Upon completion of their syntheses, the in vitro activity of quinolone derivatives 3a–f, 4a–h, and 5a,b was evaluated by their growth-inhibitory potency in three cancer cell lines. At first, the viability of the synthesized compounds was examined with the MDA-MB-231 […] breast cancer cell line at concentrations of 10 µM, 15 µM, and 25 µM. Prostate cancer PC-3 cells and human fetal lung fibroblast MRC-5 cell lines were also subjected to this series of compounds at a unique concentration of 15 µM.
(§2) MDA-MB-231 cells were grown in L15 supplemented with 15% serum, 2 mM glutamine, and 22 mM sodium bicarbonate in the presence of Penicillin/Streptomycin antibiotic mixture. PC-3 cells were cultured in RPMI 1640 supplemented with 10% serum and 2 mM glutamine in the presence of Penicillin/Streptomycin antibiotic mixture. MRC-5 cells were cultured in EMEM supplemented with 10% serum and 2 mM glutamine in the presence of Penicillin/Streptomycin antibiotic mixture (Reagents were purchased from Sigma Aldrich, Saint-Quentin-Fallavier, France).
(§3) Cells were treated for 72 h with 10, 15, and 25 µM of the selected substances. Control cells were treated with the equivalent in DMSO.
(§4) Cell survival was assessed using the CellTiter Aqueous One Proliferation assay (Promega, Charbonnières-les-Bains, France) whereby 2500 or 5000 cells per well were seeded in 96-well plates in 100 µL. At the end of the treatment, 20 µL of reagent was added, and absorbance readings were taken at 492 nm on a 96-well plate reader after 3 h of contact (on average).

[1] = MTS cell viability assay, MRC-5 cells, 72 h; type: cell-based, human; conditions: human, MRC-5 fetal lung fibroblast cells, % of viable cells compared to untreated cells 100%
Description: as §1, §2, §3, §4

colon carcinoma cells = tested on: colon carcinoma cells; set-up: method as in PMID 34952432; conditions: cited from earlier work
PC-3 cells = test: MTS cell viability / growth inhibition assay, PC-3 cells, 72 h; type: cell-based, human; conditions: Homo sapiens, PC-3; concentration needed to reduce cell growth by 50%, 72 h treatment; estimated; read-out: GI50 anti-proliferative effect PC-3
Description: as §1
Then, the growth inhibitory activities against PC-3 prostate cancer cell line were measured for the selected 3-heteroaryl-quinolin-2(1H)-one derivatives 3a–e.
as §2, §3, §4

MCF7 = conditions: Figure 1; cited from earlier work
[2] = tested on: Hsp90 client proteins (HER2, Raf-1 and cdk-4); conditions: earlier studies on mode of action; cited from earlier work
[3] = tested on: MCF-7 breast cancer cell line; conditions: earlier studies on mode of action; cited from earlier work
PC3 = conditions: earlier studies on mode of action; cited from earlier work

melting point: 202 to 203 °C
SMILES: Cn1c(=O)c(-c2nc3c(-c4ccc(Cl)cc4)ncnc3n2Cc2ccccc2)cc2ccccc21 [4g, 3-[9-benzyl-6-(4-chlorophenyl)-9H-purin-8-yl]-1-methylquinolin-2(1H)-one]
viability at 25 µM (MDA-MB-231 cells): ~30% | viability at 72 h, 15 µM [1]: 71 to 79%

SMILES: Cn1c(=O)c(NC(=O)c2ccc(OCCCCCCCCCC[P+](c3ccccc3)(c3ccccc3)c3ccccc3)cc2)cc2cc(Br)ccc21.[Br-] [6BrCaQ-C10-TPP]
mitochondrial membrane disruption (colon carcinoma cells): significant mitochondrial membrane disruption

GI50 (PC-3 cells): 10 µM
SMILES: COc1ccc(C(=O)Nc2cc3cc(Br)ccc3n(C)c2=O)cc1 [6BrCaQ]
IC50 (MCF7): 7 µM | Hsp90 client proteins (HER2, Raf-1 and cdk-4) [2]: downregulation | apoptosis level [3]: high apoptosis level | apoptosis level (PC3): high apoptosis level
